The structures appear in SMILES notation.

One test addresses human cyclin B-CDK1 (Homo sapiens, UniProt P06493). As to the kind of experiment: FlashPlate kinase assay, cyclin B-CDK1, Rb substrate. The note with it: recombinant cyclin B-CDK1, Rb phosphorylation, 1 μM ATP. Format: biochemical. The protocol:
(§1) To determine inhibition of Cdk4, Cdk2 and Cdk1 activity, kinase assays were conducted using FlashPlate™ assays (NEN™-Life Science Products). FlashPlate assays were performed using recombinant human cyclin B-CDK1, human cyclin E-CDK2 or human cyclin D1-CDK4 complexes. GST-cyclinE (GST-cycE), CDK2, GST-cyclinB (GST-cycB), CDK1, GST-CDK4 and cyclin D1 (cycD1) cDNA clones in baculovirus vectors were provided by Dr. W. Harper at the Baylor College of Medicine, Houston, Tex. Proteins were co-expressed in High Five™ insect cells and the complex was purified on glutathione Sepharose resin (Pharmacia, Piscataway, N.J.) as previously described (Harper, J. W. et al. Cell 1993, 75, 805-816). A 6×-Histidine tagged truncated form of retinoblastoma (Rb) protein (amino acid 386-928) was used as the substrate for the cycD1-CDK4, cycB-CDK1 and the cycE-CDK2 assays (the expression plasmid was provided by Dr. Veronica Sullivan, Department of Molecular Virology, Roche Research Centre, Welwyn Garden City, United Kingdom). The Rb protein is a natural substrate for phosphorylation by CDK4, CDK2 and CDK1 (see Herwig and Strauss Eur. J. Biochem. Vol. 246 (1997) pp. 581-601 and the references cited therein).
(§2) The expression of the 62 Kd protein was under the control of an IPTG inducible promoter in an M15 E. coli strain. Cells were lysed by sonication and purification was carried out by binding lysates at pH 8.0 to a Ni-chelated agarose column pretreated with 1 mM imidazole. The resin was then washed several times with incrementally decreasing pH buffers to pH 6.0, and eluted with 500 mM imidazole. Eluted protein was dialysed against 20 mM HEPES pH 7.5, 30% glycerol, 200 mM NaCl, and 1 mM DTT. Purified Rb fusion protein stocks were quantitated for protein concentration, aliquoted, and stored at −70° C.
(§3) For all three kinase assays reported herein, 96-well FlashPlates were coated with Rb protein at 10 μg/ml, using 100 μl per well. Plates were incubated at 4° C. overnight or at room temperature for 3 hours on a shaker. To control for nonspecific phosphorylation, one row of wells was coated with 100 μl/well coating buffer (20 mM HEPES, 0.2 M NaCl). Plates were then washed twice with wash buffer (0.01% Tween 20 in phosphate-buffered saline). Compounds to be tested (“test compounds”) were added to the wells at 5×final concentration. Reactions were initiated by immediate addition of 40 μl reaction mix (25 mM HEPES, 20 mM MgCl2, 0.002% Tween 20, 2 mM DTT, 1 μM ATP, 4 nM ^33P-ATP) and a sufficient amount of enzyme to give counts that were at least 10-fold above background. Plates were incubated at room temperature on a shaker for 30 minutes. Plates were washed four times with the wash buffer, sealed, and counted on the TopCount scintillation counter (Packard Instrument Co., Downers Grove, Ill.]. The percent inhibition of Rb phosphorylation, which is a measure of the inhibition of CDK activity, was determined according to the following formula: [formula]
(§4) where “test compound” refers to the average counts per minute of the test duplicates, “nonspecific” refers to the average counts per minute when no CyclinD/Cdk4, etc., was added, and “total” refers to the average counts per minute when no compound was added. The IC50 value is the concentration of test compound that reduces by 50% the protein-kinase induced incorporation of the radiolabel under the test conditions described.

In the next test the target is human cyclin E-CDK2 (Homo sapiens, UniProt P24941). As to the kind of experiment: FlashPlate kinase assay, cyclin E-CDK2, Rb substrate. The note with it: recombinant cyclin E-CDK2, Rb phosphorylation, 1 μM ATP. Type of test: biochemical. The protocol: as §1, §2, §3, §4
The target in the next test is human cyclin D1-CDK4 (Homo sapiens, UniProt P11802). As to the kind of experiment: FlashPlate kinase assay, cyclin D1-CDK4, Rb substrate. Format: biochemical. The conditions noted are these: recombinant cyclin D1-CDK4, Rb phosphorylation, 1 μM ATP. Here is the method:
as §1, §2, §3, §4

Test [1] deals with HCT116, a colorectal carcinoma cell line. As to the kind of experiment: Tetrazolium dye proliferation assay (MTT assay). Format: cell-based. The conditions noted are these: inhibition of cell proliferation. Here is the method: Proliferation was evaluated by the tetrazolium dye assay according to the procedure of Denizot and Lang (Denizot, F. and Lang, R. J Immunol Methods 1986, 89, 271-277). The cell line used was HCT116, a colorectal carcinoma cell line obtained from the American Type Cell Culture Collection (ATCC; Rockville, Md.). The cells were grown in McCoy's 5A medium supplemented with 10% FCS and L-glutamine.
Cells were plated at the appropriate seeding density to give logarithmic growth over the course of the assay in a 96-well tissue culture plate. Plates were incubated overnight at 37° C. in a humidified incubator with 5% CO2. The next day, test compounds were serially diluted to four times the final concentration in the appropriate medium containing 1.2% DMSO. One-fourth final volume of each dilution was added in duplicate to the plates containing cells. The same volume of 1.2% DMSO in medium was added to a row of “control wells” such that the final concentration of DMSO in each well was 0.3%. Wells to which no cells were added served as the “blank.” Wells to which no inhibitor was added served as “no inhibitor control.” The plates were) returned to the incubator, and at set time points (determined by their growth curves) plates were analyzed as described below.
3-(4,5-dimethylthiazole-2-yl)-2,5-diphenyl-2H-tetrazolium bromide (thiazolyl blue; MTT; Sigma) was added to each well to yield a final concentration of 1 mg/ml. Plates were returned to the incubator for 2.5-3 hours at 37° C. The MTT-containing medium was removed and the resulting formazan metabolite was solubilized in 100% ethanol with shaking for 15 minutes at room temperature. Absorbance readings were taken in a microtiter plate reader (Dynatech and Molecular Devices plate readers were used interchangeably) at a wavelength of 570 nm with a 650 nm reference. Percent inhibition (% INH) is calculated by subtracting the absorbance of the blank well from all wells, then subtracting the ratio of the average absorbance of each test duplicate (SAVE) by the average of the controls (CAVE) from 1.00. The final number is then multiplied by 100 (% INH=(1.00−SAVE/CAVE)×100). The concentration at which 50% inhibition of cell proliferation is obtained (the IC50) is determined from the linear regression of a plot of the logarithm of the concentration versus percent inhibition.
(In general: Formazan colour is commonly taken as a measure of viable cells.)

The mark [2] stands for this setting: Homo sapiens, HCT-116, HCT116 cells.

Chain of human cyclin D1-CDK4 (P11802 whole entry): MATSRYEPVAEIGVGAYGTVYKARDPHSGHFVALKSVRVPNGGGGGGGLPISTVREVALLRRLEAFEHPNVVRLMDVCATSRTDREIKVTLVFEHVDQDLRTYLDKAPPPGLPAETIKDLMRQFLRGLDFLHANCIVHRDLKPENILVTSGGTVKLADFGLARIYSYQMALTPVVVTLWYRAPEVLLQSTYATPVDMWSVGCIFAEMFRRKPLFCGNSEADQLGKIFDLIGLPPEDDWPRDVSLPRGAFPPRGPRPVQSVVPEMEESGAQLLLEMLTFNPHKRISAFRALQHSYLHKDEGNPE
Chain of human cyclin D1-CDK4 (P24385 whole entry partner): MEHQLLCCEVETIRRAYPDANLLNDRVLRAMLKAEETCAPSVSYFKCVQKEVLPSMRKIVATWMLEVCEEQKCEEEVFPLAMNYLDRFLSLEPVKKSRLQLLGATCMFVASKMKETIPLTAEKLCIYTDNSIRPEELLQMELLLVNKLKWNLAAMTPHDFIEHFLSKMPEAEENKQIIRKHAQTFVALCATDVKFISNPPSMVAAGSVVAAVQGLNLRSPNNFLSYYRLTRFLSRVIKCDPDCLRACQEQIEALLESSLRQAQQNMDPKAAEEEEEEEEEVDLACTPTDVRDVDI
Chain of human cyclin B-CDK1 (P06493 whole entry): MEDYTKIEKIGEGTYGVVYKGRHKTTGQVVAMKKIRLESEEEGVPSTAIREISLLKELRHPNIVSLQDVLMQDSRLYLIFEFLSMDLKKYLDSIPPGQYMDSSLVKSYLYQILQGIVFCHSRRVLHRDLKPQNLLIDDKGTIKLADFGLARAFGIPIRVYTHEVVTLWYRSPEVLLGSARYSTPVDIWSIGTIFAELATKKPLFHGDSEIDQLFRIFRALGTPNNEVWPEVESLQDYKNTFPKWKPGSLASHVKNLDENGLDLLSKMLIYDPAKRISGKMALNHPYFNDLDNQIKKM
Chain of human cyclin B-CDK1 (P14635 whole entry partner): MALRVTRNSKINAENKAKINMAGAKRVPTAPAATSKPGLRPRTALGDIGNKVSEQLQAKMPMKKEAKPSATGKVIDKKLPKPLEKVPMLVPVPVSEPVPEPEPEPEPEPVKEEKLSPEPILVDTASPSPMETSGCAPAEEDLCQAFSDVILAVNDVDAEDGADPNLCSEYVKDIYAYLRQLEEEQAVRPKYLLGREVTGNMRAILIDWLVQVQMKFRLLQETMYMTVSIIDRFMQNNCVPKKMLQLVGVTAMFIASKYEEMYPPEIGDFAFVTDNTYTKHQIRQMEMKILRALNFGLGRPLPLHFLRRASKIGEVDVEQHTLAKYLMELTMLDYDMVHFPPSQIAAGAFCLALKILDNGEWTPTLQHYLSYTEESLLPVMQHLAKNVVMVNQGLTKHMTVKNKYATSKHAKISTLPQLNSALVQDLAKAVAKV

Usually IC50 stands for the concentration needed to halve the response being measured. Take `CCN(CC)CCOc1ccc(Nc2nc(N)c(C(=O)c3cccc(SC)c3)s2)cc1` [Example 126, [4-Amino-2-[4-(2-diethylamino-ethoxy)-phenylamino]-thiazol-5-yl]-(3-methylsulfanyl-phenyl)-methanone]: the IC50 was determined as 1650 nM on human cyclin B-CDK1, 6070 nM at human cyclin E-CDK2, 47 nM at human cyclin D1-CDK4 and 3970 nM in test [1] (setting [2]).

For the molecule `Nc1nc(Nc2ccc(OCCN3CCCC3)cc2)sc1C(=O)c1ccc(O)c(F)c1` [Example 120, [4-Amino-2-[4-(2-pyrrolidin-1-ylethoxy)-phenylamino]-thiazol-5-yl]-(3-fluoro-4-hydroxy-phenyl)-methanone; Compound With Acetic Acid], the IC50 on human cyclin B-CDK1 came to 422 nM; at human cyclin E-CDK2, 781 nM; at human cyclin D1-CDK4, 38 nM; in test [1] (setting [2]) it was 1630 nM.

Turning to `CN(C)CCOc1ccc(Nc2nc(N)c(C(=O)c3cccc(F)c3)s2)cc1` [Example 37, [4-Amino-2-[4-(2-dimethylamino-ethoxy)-phenylamino]-thiazol-5-yl]-(3-fluoro-phenyl)-methanone], the IC50 worked out at 126 nM on human cyclin B-CDK1, 892 nM on human cyclin E-CDK2, 32 nM at human cyclin D1-CDK4 and 520 nM in test [1] (setting [2]).

On to `CCc1cccc(C(=O)c2sc(Nc3ccc(OC[C@@H](C)N(C)C)cc3)nc2N)c1` [Example 63, (R)-[4-Amino-2-[4-(2-dimethylamino-propoxy)-phenylamino]-thiazol-5-yl]-(3-ethyl-phenyl)-methanone], for which the IC50 at human cyclin B-CDK1 worked out at 2570 nM; on human cyclin E-CDK2 it was 1900 nM; at human cyclin D1-CDK4 it was 80 nM; in test [1] (setting [2]), 623 nM.

In the case of `CCCc1cc(C(=O)c2sc(Nc3ccc(OCCNCC)cc3)nc2N)ccc1O` [Example 105, [4-Amino-2-[4-(2-ethylamino-ethoxy)-phenylamino]-thiazol-5-yl]-(4-hydroxy-3-propyl-phenyl)-methanone; Compound With Acetic Acid], the IC50 on human cyclin B-CDK1 came out at 112 nM; on human cyclin E-CDK2, 176 nM; at human cyclin D1-CDK4, 18 nM; in test [1] (setting [2]) it was 390 nM.

In the case of `CCc1cccc(C(=O)c2sc(Nc3ccc(OC[C@@H](C)N4CCCC4)cc3)nc2N)c1` [Example 67, (R)-[4-Amino-2-[4-(2-pyrrolidin-1-yl-propoxy)-phenylamino]-thiazol-5-yl]-(3-ethyl-phenyl)-methanone], the IC50 at human cyclin B-CDK1 turned out to be 2760 nM; on human cyclin E-CDK2 it was 1480 nM; on human cyclin D1-CDK4 it was 70 nM; in test [1] (setting [2]), 846 nM.

Take `Nc1nc(Nc2ccc(OCCN3CCCC3)cc2)sc1C(=O)c1cccc(F)c1` [Example 118, [4-Amino-2-[4-(2-pyrrolidin-1-yl-ethoxy)-phenylamino]-thiazol-5-yl]-(3-fluoro-phenyl)-methanone; Compound With Acetic Acid]: the IC50 on human cyclin B-CDK1 came to 248 nM; on human cyclin E-CDK2, 889 nM; at human cyclin D1-CDK4, 62 nM; in test [1] (setting [2]), 517 nM.

In the case of `Nc1nc(Nc2ccc(OC3CCNC3)cc2)sc1C(=O)c1cccc(F)c1` (stereo not shown) [Example 45, [4-Amino-2-[4-(pyrrolidin-3-yloxy)-phenylamino]-thiazol-5-yl]-(3-fluoro-phenyl)-methanone], the IC50 on human cyclin B-CDK1 turned out to be 158 nM; at human cyclin E-CDK2, 589 nM; on human cyclin D1-CDK4, 39 nM; in test [1] (setting [2]), 1240 nM.

On to `CCNCCOc1ccc(Nc2nc(N)c(C(=O)c3cccc(C)c3)s2)cc1` [Example 100, [4-Amino-2-(4-(2-ethylamino-ethoxy)-phenylamino]-thiazol-5-yl]-m-tolyl-methanone; Compound With Acetic Acid], for which the IC50 worked out at 731 nM on human cyclin B-CDK1, 1230 nM on human cyclin E-CDK2, 43 nM on human cyclin D1-CDK4 and 880 nM in test [1] (setting [2]).

As for `Nc1nc(Nc2ccc(OCCN3CCCC3)cc2)sc1C(=O)c1cccc(F)c1` [Example 36, [4-Amino-2-[4-(2-pyrrolidin-1-yl-ethoxy)-phenylamino]-thiazol-5-yl]-(3-fluoro-phenyl)-methanone], the IC50 at human cyclin B-CDK1 was 338 nM; on human cyclin E-CDK2, 800 nM; on human cyclin D1-CDK4, 27 nM; in test [1] (HCT116 cells), 477 nM.

The values are drawn from patent US6818663B2, “Diaminothiazoles” (Hoffmann-La Roches, priority 2002, dated 2004).
